Reference: article PMC8521653 (ACS Medicinal Chemistry Letters, 2021)
Marks after values point to notes of the source that are not given here.

Experiments:
[1] = system: PREP-catalyzed α-synuclein dimerization in N2A cells; experiment: αSyn dimerization, protein fragment complementation assay (PCA) in N2A cells; format: cell-based; conditions: 10 μM, PCA, Figure S1A, % decrease
Description: The effect of the compounds on autophagy was determined by using GFP-LC3B-RFP expressing HEK-293 cells.[15],[34] The effect on αSyn dimerization was evaluated with a protein fragment complementation assay (PCA) by using N2A cells.[10],[15],[16] The increase in autophagic flux was measured as a decrease in GFP signal due to increased degradation of GFP-LC3B, and the decrease in αSyn dimerization was measured as a decrease in luminescence, both compared with DMSO (Table 1). […] Rapamycin and starvation are known to induce autophagy, lowering the fluorescence to 65–70% in our assays, and were therefore used as reference compounds for this. Test compounds were assayed at 10 μM concentration with 0.1% DMSO. A graphical representation of the mean values (± SEM) can be seen in the Supporting Information (Figure S1).
Measuring biological activity […]
α-Synuclein Dimerization. αSyn dimerization was assessed by using PCA, which was carried out as described previously in Kilpeläinen et al.1 In short, N2A cells were seeded on poly-L-lysine-coated 96-well plates (Isoplate™ white wall, PerkinElmer Life Sciences) at the density of 13 000 cells/well. 24 h post-plating, reporter plasmids were transfected with 100 ng of total plasmid DNA per well. N2A cells were transfected with 25 ng of both αSyn-Gluc1 and αSyn-Gluc2 and 50 ng mock-plasmid or non-tagged human PREP expression plasmid 50 ng/well. Lipofectamine 3000 (Thermo Fischer Scientific) was used as the transfection reagent. 100 µL normal growth medium was added to all wells at 24 h post-transfection. 48 hours post-transfection medium was changed to phenol red free DMEM without serum containing the tested compounds at 10 µM concentration, with 0,1% DMSO as vehicle control. Proteasome inhibitors lactacystin (AG Scientific) at 10 µM and MG-132 (Enzo Life Sciences) at 10 µM served as a positive control. The PCA signal was assessed by injecting 25 µL of native coelenterazine (Nanolight Technology) in phenol red free DMEM per well (final concentration 6 µM). The emitted luminescence was read using Varioskan LUX multimode microplate reader (Thermo Scientific). For each experimental condition, 4 replicate wells were used in each experiment, and at least 3 separate experiments for each treatment except for 15c which had 2 separate experiments. […]

[2] = system: GFP-LC3B-RFP expressing HEK-293 cells; experiment: Autophagic flux, GFP signal in GFP-LC3B-RFP expressing HEK-293 cells; format: cell-based; conditions: for effect on autophagy (in words) / activity at 10 µM: 10 μM; for activity at 10 µM: Homo sapiens, HEK293, GFP signal percentage of DMSO control with SEM, HEK-293 cells, read-out: autophagy at 10 μM (%)
[3] = system: PREP-catalyzed α-synuclein dimerization in N2A cells; conditions: luminescence signal percentage of DMSO control with SEM, ref Kilpeläinen et al.[16]; cited from earlier work
[4] = system: GFP-LC3B-RFP expressing HEK-293 cells; set-up: method as in Kilpeläinen et al.[15]; conditions: GFP signal percentage of DMSO control with SEM, ref Kilpeläinen et al.[15]; cited from earlier work
[5] = target: T1, purified recombinant porcine PREP (Sus scrofa, UniProt P23687); set-up: method as in Kilpeläinen et al.[16]; conditions: 95% CI in brackets, ref Kilpeläinen et al.[16]; cited from earlier work
T1 construct: made in house; host or cells: E. coli
T1 sequence (P23687 whole entry): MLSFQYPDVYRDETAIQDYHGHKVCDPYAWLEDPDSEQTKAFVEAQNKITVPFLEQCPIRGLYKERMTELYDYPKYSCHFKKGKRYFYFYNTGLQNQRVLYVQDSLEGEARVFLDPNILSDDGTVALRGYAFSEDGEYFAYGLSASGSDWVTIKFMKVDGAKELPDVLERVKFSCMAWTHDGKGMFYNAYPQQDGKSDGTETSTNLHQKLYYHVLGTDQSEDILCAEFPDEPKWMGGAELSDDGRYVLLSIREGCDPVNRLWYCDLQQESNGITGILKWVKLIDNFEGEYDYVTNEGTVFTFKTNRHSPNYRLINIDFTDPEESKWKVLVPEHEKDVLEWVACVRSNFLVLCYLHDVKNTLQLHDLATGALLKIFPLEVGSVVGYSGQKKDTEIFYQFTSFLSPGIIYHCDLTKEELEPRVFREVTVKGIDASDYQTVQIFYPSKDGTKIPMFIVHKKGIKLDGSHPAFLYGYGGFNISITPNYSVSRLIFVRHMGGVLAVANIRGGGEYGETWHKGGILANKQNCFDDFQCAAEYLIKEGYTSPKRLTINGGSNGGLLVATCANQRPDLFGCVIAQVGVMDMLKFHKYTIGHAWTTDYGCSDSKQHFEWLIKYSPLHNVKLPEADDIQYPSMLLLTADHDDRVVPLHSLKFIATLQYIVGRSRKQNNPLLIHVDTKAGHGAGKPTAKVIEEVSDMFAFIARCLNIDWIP

SMILES | decrease of aSyn dimerization compared to DMSO control [1] [%] | effect on autophagy (in words) [2] | decrease in autophagic flux assay GFP signal compared to DMSO control ([2]; 10 µM, 24 h, Figure S1B, % decrease) [%] | activity at 10 µM ([2]; 24 h) [%] | α-synuclein dimerization at 10 μM (%) [3] | autophagy at 10 μM (%) [4] | IC50 [5] [nM]
C[C@H](NC(=O)CCCc1ccccc1)C(=O)N1CCC[C@H]1c1nnn[nH]1 [Compound 1b] | 25 | effective at inducing autophagy | 29 | 71 | 75 ^e (4.9) % |  | 
N#C[C@@H]1CCCN1C(=O)[C@@H]1CCCN1C(=O)CCCc1ccccc1 [KYP-2047] |  |  |  |  |  | 89 ^d (3.4) % | 
O=C(CCCc1ccccc1)N1CCC[C@H]1C(=O)N1CCC[C@H]1c1nnn[nH]1 [Compound 1a] | 23 | no significant activity |  | 92 | 82 ^e (6.8) % |  | 
O=C(CCCc1ccccc1)NCC(=O)N1CCC[C@H]1c1nnn[nH]1 [Compound 1e] |  | no significant activity |  | 90 | 77 ^e (6.2) % |  | 210000
